{
  "source": "patent US20240148821A1",
  "about": "“PHARMACEUTICAL USE OF CYCLIC PEPTIDE COMPOUND” (CHUGAI SEIYAKU KABUSHIKI KAISHA, priority 2021, published 2024)",
  "note": "Numbered stars: 1 amine (or outer) side, 2 acyl side, 3 side chain; on linkers, the order of the positions; unused ones are H or OH. Bridge positions count the residues as written; N and C are the ends. Square brackets hold non-standard residues; d marks the D form. Peptide text beside a SMILES is read from it. * marks the point of attachment. hPhe(3-Cl-4-CF3) = N[C@@H](CCc1ccc(C(F)(F)F)c(Cl)c1)C(=O)O; hPhe(3-F,4-CF3) = N[C@@H](CCc1ccc(C(F)(F)F)c(F)c1)C(=O)O; hPhe(4-CF3) = N[C@@H](CCc1ccc(C(F)(F)F)cc1)C(=O)O; NMePhe(4-Cl) = CN[C@@H](Cc1ccc(Cl)cc1)C(=O)O; NMedβ3hAla = C[C@H](CC(=O)[*:2])N(C)[*:1]; NMeGly(cPent) = CN[C@H](C(=O)O)C1CCCC1; NMeCha = CN[C@@H](CC1CCCCC1)C(=O)O; NMeF = CN[C@@H](Cc1ccccc1)C(=O)O; NMeI = CC[C@H](C)[C@H](NC)C(=O)O; Gly(cBu) = N[C@H](C(=O)O)C1CCC1; NMeD = CN[C@@H](CC(=O)O)C(=O)O; NMeL = CN[C@@H](CC(C)C)C(=O)O; NMePra = C#CC[C@H](NC)C(=O)O; NMeV = CN[C@H](C(=O)O)C(C)C; d(β3hA) = C[C@@H](N)CC(=O)O; NMeA = CN[C@@H](C)C(=O)O; Nle = CCCC[C@H](N)C(=O)O; Piperidide = C1CCN(*)CC1; Ac5c = NC1(C(=O)O)CCCC1; Aze = O=C(O)[C@@H]1CCN1; Sar = CNCC(=O)O",
  "data": [
    {"target": "protein-protein interaction between Kras and SOS1 (biotin-tagged human Kras loaded with GDP, His-tagged human SOS1) (Homo sapiens (Human), UniProt P01116, G12D)", "assay": "Protein-protein interaction inhibition between Kras and SOS1 (KrasG12D-SOS PPI) using AlphaScreen;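 also: kras produced in E. coli, Ni-coupled donor beads and streptavidin acceptor beads, excitation 680 nm with emission detected at 520–620 nm via singlet oxygen transfer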", "format": "biochemical", "conditions": "AlphaScreen; biotin-tagged human Kras loaded with GDP, His-tagged human SOS1; read-out: KRAS G12D-SOS PPI IC50", "units": {"IC50": "nM"}, "values": [
      {"smiles": "CC[C@H](C)[C@@H]1NC(=O)[C@H](C)N(C)C(=O)C[C@@H](C)NC(=O)[C@H](CC(C)C)N(C)C(=O)[C@H](Cc2ccccc2)N(C)C(=O)[C@H](CC(C)C)N(C)C(=O)[C@H](CCc2ccc(C(F)(F)F)cc2)NC(=O)CN(C)C(=O)[C@H](Cc2ccc(Cl)cc2)N(C)C(=O)CN(C)C(=O)CN(C)C1=O", "note": "[Compound 546] (cyclo(I[Sar][Sar][NMePhe(4-Cl)][Sar][hPhe(4-CF3)][NMeL][NMeF][NMeL][d(β3hA)][NMeA]))", "IC50": 130},
      {"smiles": "C#CC[C@H]1C(=O)N[C@@H]([C@@H](C)CC)C(=O)N(C)[C@@H](C)C(=O)N2CC[C@H]2C(=O)N(C)[C@@H](CC2CCCCC2)C(=O)N(C)CC(=O)N[C@@H](CCc2ccc(C(F)(F)F)c(Cl)c2)C(=O)N2CCC[C@H]2C(=O)NC2(CCCC2)C(=O)N(C)[C@@H](C(C)C)C(=O)N(C)[C@H](C(=O)N2CCCCC2)CC(=O)N1C", "note": "[Compound 559] ([NMePra]I[NMeA][Aze][NMeCha][Sar][hPhe(3-Cl-4-CF3)]P[Ac5c][NMeV][NMeD]-Piperidide; lactam N-11)", "IC50": 1.7},
      {"smiles": "CC[C@H](C)[C@@H]1NC(=O)[C@H](CC(C)C)N(C)C(=O)C[C@@H](C(=O)N2CCCCC2)N(C)C(=O)[C@H](C2CCCC2)N(C)C(=O)C2(CCCC2)NC(=O)[C@@H]2CCCN2C(=O)[C@H](CCc2ccc(C(F)(F)F)c(F)c2)NC(=O)CN(C)C(=O)[C@H](CC2CCCCC2)N(C)C(=O)[C@@H]2CCN2C(=O)[C@H](C)N(C)C1=O", "note": "[Compound 563] ([NMeL]I[NMeA][Aze][NMeCha][Sar][hPhe(3-F,4-CF3)]P[Ac5c][NMeGly(cPent)][NMeD]-Piperidide; lactam N-11)", "IC50": 1.1},
      {"smiles": "CCCC[C@@H]1NC(=O)[C@H](CCc2ccc(C(F)(F)F)c(Cl)c2)NC(=O)CN(C)C(=O)[C@H](Cc2ccc(Cl)cc2)N(C)C(=O)CN(C)C(=O)CN(C)C(=O)[C@H]([C@@H](C)CC)NC(=O)[C@H](CC(C)C)N(C)C(=O)C[C@@H](C)N(C)C(=O)[C@H](CC(C)C)NC(=O)[C@H](Cc2ccccc2)N(C)C1=O", "note": "[Compound 566] (cyclo(I[Sar][Sar][NMePhe(4-Cl)][Sar][hPhe(3-Cl-4-CF3)][Nle][NMeF]L[NMedβ3hAla][NMeL]))", "IC50": 160},
      {"smiles": "CC[C@H](C)[C@@H]1NC(=O)[C@H](CC(C)C)N(C)C(=O)C[C@@H](C(=O)N(C)C)NC(=O)[C@H]([C@@H](C)CC)N(C)C(=O)C2(CCCC2)NC(=O)[C@@H]2CCCN2C(=O)[C@H](CCc2ccc(C(F)(F)F)c(Cl)c2)NC(=O)CN(C)C(=O)[C@H](CC2CCCCC2)N(C)C(=O)[C@@H]2CCN2C(=O)[C@H](C)N(C)C1=O", "note": "[Compound 568] ([NMeL]I[NMeA][Aze][NMeCha][Sar][hPhe(3-Cl-4-CF3)]P[Ac5c][NMeI]D-NMe2; lactam N-11)", "IC50": 8},
      {"smiles": "CC[C@H](C)[C@@H]1NC(=O)[C@H](CC2CCCCC2)N(C)C(=O)C[C@@H](C(=O)N2CCCCC2)N(C)C(=O)[C@H](C(C)C)N(C)C(=O)C2(CCCC2)NC(=O)[C@@H]2CCCN2C(=O)[C@H](CCc2ccc(C(F)(F)F)c(Cl)c2)NC(=O)CN(C)C(=O)[C@H](CC2CCCCC2)N(C)C(=O)[C@@H]2CCN2C(=O)[C@H](C)N(C)C1=O", "note": "[Compound 572] ([NMeCha]I[NMeA][Aze][NMeCha][Sar][hPhe(3-Cl-4-CF3)]P[Ac5c][NMeV][NMeD]-Piperidide; lactam N-11)", "IC50": 39},
      {"smiles": "CC(C)C[C@H]1C(=O)N[C@@H](C2CCC2)C(=O)N(C)[C@@H](C)C(=O)N2CC[C@H]2C(=O)N(C)[C@@H](CC2CCCCC2)C(=O)N(C)CC(=O)N[C@@H](CCc2ccc(C(F)(F)F)c(Cl)c2)C(=O)N2CCC[C@H]2C(=O)NC2(CCCC2)C(=O)N(C)[C@@H](C(C)C)C(=O)N[C@H](C)CC(=O)N1C", "note": "[Compound 580] (cyclo([Ac5c][NMeV][d(β3hA)][NMeL][Gly(cBu)][NMeA][Aze][NMeCha][Sar][hPhe(3-Cl-4-CF3)]P))", "IC50": 66},
      {"smiles": "CC[C@H](C)[C@@H]1NC(=O)[C@H](CC2CCCCC2)N(C)C(=O)C[C@@H](C)NC(=O)[C@H](CC(C)C)N(C)C(=O)C2(CCCC2)NC(=O)[C@H](CC(C)C)N(C)C(=O)[C@H](CCc2ccc(C(F)(F)F)cc2)NC(=O)CN(C)C(=O)[C@H](Cc2ccc(Cl)cc2)N(C)C(=O)CN(C)C(=O)CN(C)C1=O", "note": "[Compound 583] (cyclo([Ac5c][NMeL][d(β3hA)][NMeCha]I[Sar][Sar][NMePhe(4-Cl)][Sar][hPhe(4-CF3)][NMeL]))", "IC50": 370},
      {"smiles": "CC[C@H](C)[C@@H]1NC(=O)[C@H](C)N(C)C(=O)C[C@@H](C)NC(=O)[C@H](CC(C)C)N(C)C(=O)[C@H](C(C)C)N(C)C(=O)[C@H](CC(C)C)N(C)C(=O)[C@H](CCc2ccc(C(F)(F)F)cc2)NC(=O)CN(C)C(=O)[C@H](Cc2ccc(Cl)cc2)N(C)C(=O)CN(C)C(=O)CN(C)C1=O", "note": "[Compound 588] (cyclo(I[Sar][Sar][NMePhe(4-Cl)][Sar][hPhe(4-CF3)][NMeL][NMeV][NMeL][d(β3hA)][NMeA]))", "IC50": 360}
    ]}
  ]
}
